# Test results: ChEMBL document CHEMBL1124361, “Tetrapeptide inhibitors of the IgA1 proteinases from type I Neisseria gonorrhoeae” (J Med Chem, 1989)
# Peptide text beside a SMILES is read from it.
# Target: IgA-specific serine endopeptidase autotransporter (Neisseria gonorrhoeae, UniProt P09790)
# Assay: Inhibitory concentration against type 1 IgA1 proteinases secreted by Neisseria gonorrhoeae
# IgA-specific serine endopeptidase autotransporter, sequence (P09790 whole entry): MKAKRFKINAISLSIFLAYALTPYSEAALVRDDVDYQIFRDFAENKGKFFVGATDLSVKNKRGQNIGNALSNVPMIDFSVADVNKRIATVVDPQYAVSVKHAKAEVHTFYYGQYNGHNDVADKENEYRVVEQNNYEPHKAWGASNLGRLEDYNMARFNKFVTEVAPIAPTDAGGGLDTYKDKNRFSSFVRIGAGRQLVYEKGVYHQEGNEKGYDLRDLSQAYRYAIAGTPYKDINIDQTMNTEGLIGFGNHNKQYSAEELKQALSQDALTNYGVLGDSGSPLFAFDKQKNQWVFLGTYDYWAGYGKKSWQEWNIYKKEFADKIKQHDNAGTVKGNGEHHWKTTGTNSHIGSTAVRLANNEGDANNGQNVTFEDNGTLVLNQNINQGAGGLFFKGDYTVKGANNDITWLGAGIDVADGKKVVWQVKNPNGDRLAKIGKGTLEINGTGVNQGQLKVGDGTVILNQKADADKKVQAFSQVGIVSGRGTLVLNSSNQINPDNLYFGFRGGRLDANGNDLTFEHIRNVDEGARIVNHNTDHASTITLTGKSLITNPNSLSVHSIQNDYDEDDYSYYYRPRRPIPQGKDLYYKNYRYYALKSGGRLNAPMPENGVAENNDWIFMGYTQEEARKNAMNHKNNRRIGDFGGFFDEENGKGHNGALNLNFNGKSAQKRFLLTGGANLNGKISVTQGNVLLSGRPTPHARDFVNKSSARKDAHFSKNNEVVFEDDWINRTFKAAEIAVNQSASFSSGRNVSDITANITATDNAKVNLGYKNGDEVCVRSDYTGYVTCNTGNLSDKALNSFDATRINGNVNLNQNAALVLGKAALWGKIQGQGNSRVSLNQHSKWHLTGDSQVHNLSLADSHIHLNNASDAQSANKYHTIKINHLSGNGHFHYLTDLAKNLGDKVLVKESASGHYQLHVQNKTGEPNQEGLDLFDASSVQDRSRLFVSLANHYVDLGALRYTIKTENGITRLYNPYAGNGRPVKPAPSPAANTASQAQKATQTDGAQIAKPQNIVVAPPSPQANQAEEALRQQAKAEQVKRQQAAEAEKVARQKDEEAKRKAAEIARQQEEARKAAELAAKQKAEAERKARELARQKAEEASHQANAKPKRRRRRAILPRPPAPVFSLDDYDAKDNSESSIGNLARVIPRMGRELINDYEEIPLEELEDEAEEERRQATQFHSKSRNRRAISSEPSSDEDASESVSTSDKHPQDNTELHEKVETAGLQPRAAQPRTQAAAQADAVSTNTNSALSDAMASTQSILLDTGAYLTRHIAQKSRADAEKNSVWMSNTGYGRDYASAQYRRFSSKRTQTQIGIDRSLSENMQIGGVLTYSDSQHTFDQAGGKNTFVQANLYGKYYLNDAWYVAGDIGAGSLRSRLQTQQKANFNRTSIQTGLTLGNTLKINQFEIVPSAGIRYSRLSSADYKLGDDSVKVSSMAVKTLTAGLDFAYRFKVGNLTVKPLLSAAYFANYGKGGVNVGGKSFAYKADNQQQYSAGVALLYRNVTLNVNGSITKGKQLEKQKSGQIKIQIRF
row,SMILES,IC50 [µM]
1,CC(=O)N1CCC[C@H]1C(=O)N[C@@H](CO)C(=O)N1CCC[C@H]1C(=O)N[C@@H](CO)C(N)=O [ACETYLPROLYLSERYLPROLYLSERINAMIDE(ACPSPSNH2)] (Ac-PSPS-NH2),> 1000
2,CC(=O)N[C@H](C(=O)N1CCC[C@H]1C(=O)N[C@@H](CO)C(=O)N1CCC[C@H]1C(=O)O)[C@@H](C)O (Ac-TPSP-OH),183
3,C[C@@H](O)[C@H](NC(=O)[C@@H](N)CO)C(=O)N1CCC[C@H]1C(=O)N1CCC[C@H]1C(=O)O (H-STPP-OH),73
4,CC(=O)N1CCC[C@H]1C(=O)N1CCC[C@H]1C(=O)N[C@H](C(=O)N1CCC[C@H]1C(=O)O)[C@@H](C)O (Ac-PPTP-OH),> 1000
5,C[C@@H](O)[C@H](NC(=O)[C@@H]1CCCN1)C(=O)N1CCC[C@H]1C(=O)N[C@@H](CO)C(=O)O (H-PTPS-OH),> 1000
6,CC(=O)N1CCC[C@H]1C(=O)N[C@@H](CO)C(=O)N1CCC[C@H]1C(=O)N[C@@H](CO)C(=O)O (Ac-PSPS-OH),675
7,CC(=O)N1CCC[C@H]1C(=O)N[C@H](C(=O)N1CCC[C@H]1C(=O)N[C@@H](CO)C(=O)O)[C@@H](C)O (Ac-PTPS-OH),23.8
8,C[C@@H](O)[C@H](N)C(=O)N1CCC[C@H]1C(=O)N1CCC[C@H]1C(=O)N[C@H](C(=O)O)[C@@H](C)O (H-TPPT-OH),> 1000
9,CC(=O)N[C@H](C(=O)N1CCC[C@H]1C(=O)N[C@@H](CO)C(=O)N1CCC[C@H]1C(N)=O)[C@@H](C)O [ACETYLTHREONYLPROLYLSERYLPROLINAMIDE(ACTPSPNH2)] (Ac-TPSP-NH2),> 1000
10,O=C(O)[C@H](CO)NC(=O)[C@@H]1CCCN1C(=O)[C@H](CO)NC(=O)[C@@H]1CCCN1 (H-PSPS-OH),> 1000
11,C[C@@H](O)[C@H](N)C(=O)N1CCC[C@H]1C(=O)N[C@@H](CO)C(=O)N1CCC[C@H]1C(N)=O [THREONYLPROLYLSERYLPROLINAMIDE(TPSPNH2)] (H-TPSP-NH2),> 1000
12,CC(=O)N[C@@H](CO)C(=O)N[C@H](C(=O)N1CCC[C@H]1C(=O)N1CCC[C@H]1C(N)=O)[C@@H](C)O (Ac-STPP-NH2),> 1000
13,CC(=O)N[C@H](C(=O)N1CCC[C@H]1C(=O)N1CCC[C@H]1C(=O)N[C@H](C(=O)O)[C@@H](C)O)[C@@H](C)O (Ac-TPPT-OH),> 1000
14,C[C@@H](O)[C@H](NC(=O)[C@@H](N)CO)C(=O)N1CCC[C@H]1C(=O)N1CCC[C@H]1C(N)=O (H-STPP-NH2),> 1000
15,CC(=O)N[C@H](C(=O)N1CCC[C@H]1C(=O)N1CCC[C@H]1C(=O)N[C@H](C(N)=O)[C@@H](C)O)[C@@H](C)O (Ac-TPPT-NH2),> 1000
16,C[C@@H](O)[C@H](NC(=O)[C@@H]1CCCN1)C(=O)N1CCC[C@H]1C(=O)N[C@@H](CO)C(N)=O (H-PTPS-NH2),5.3
17,NC(=O)[C@H](CO)NC(=O)[C@@H]1CCCN1C(=O)[C@H](CO)NC(=O)[C@@H]1CCCN1 (H-PSPS-NH2),> 1000
18,CC(=O)N[C@@H](CO)C(=O)N[C@H](C(=O)N1CCC[C@H]1C(=O)N1CCC[C@H]1C(=O)O)[C@@H](C)O (Ac-STPP-OH),9.7
19,C[C@@H](O)[C@H](N)C(=O)N1CCC[C@H]1C(=O)N[C@@H](CO)C(=O)N1CCC[C@H]1C(=O)O (H-TPSP-OH),33.1
20,CC(=O)N1CCC[C@H]1C(=O)N[C@H](C(=O)N1CCC[C@H]1C(=O)N[C@@H](CO)C(N)=O)[C@@H](C)O [ACETYLPROLYLTHREONYLPROLYLSERINAMIDE(ACPTPSNH2)] (Ac-PTPS-NH2),> 1000
21,C[C@@H](O)[C@H](NC(=O)[C@@H]1CCCN1C(=O)[C@@H]1CCCN1)C(=O)N1CCC[C@H]1C(N)=O [PROLYLPROLYLTHREONYLPROLINAMIDE(PPTPNH2)] (H-PPTP-NH2),> 1000
22,C[C@@H](O)[C@H](N)C(=O)N1CCC[C@H]1C(=O)N1CCC[C@H]1C(=O)N[C@H](C(N)=O)[C@@H](C)O (H-TPPT-NH2),419
23,C[C@@H](O)[C@H](NC(=O)[C@@H]1CCCN1C(=O)[C@@H]1CCCN1)C(=O)N1CCC[C@H]1C(=O)O (H-PPTP-OH),40.5
24,CC(=O)N1CCC[C@H]1C(=O)N1CCC[C@H]1C(=O)N[C@H](C(=O)N1CCC[C@H]1C(N)=O)[C@@H](C)O [ACETYLPROLYLPROLYLTHREONYLPROLINAMIDE(ACPPTPNH2)] (Ac-PPTP-NH2),> 1000
